From patent publication US20230167073A1 (Teijin Pharma Limited, priority 2020, published 2023) come the findings set out here.

In this experiment the target is T1, Human TRPC6 (Homo sapiens, UniProt Q9Y210).
T1 construct: expressed in transfected cells
T1 sequence (Q9Y210 1-931): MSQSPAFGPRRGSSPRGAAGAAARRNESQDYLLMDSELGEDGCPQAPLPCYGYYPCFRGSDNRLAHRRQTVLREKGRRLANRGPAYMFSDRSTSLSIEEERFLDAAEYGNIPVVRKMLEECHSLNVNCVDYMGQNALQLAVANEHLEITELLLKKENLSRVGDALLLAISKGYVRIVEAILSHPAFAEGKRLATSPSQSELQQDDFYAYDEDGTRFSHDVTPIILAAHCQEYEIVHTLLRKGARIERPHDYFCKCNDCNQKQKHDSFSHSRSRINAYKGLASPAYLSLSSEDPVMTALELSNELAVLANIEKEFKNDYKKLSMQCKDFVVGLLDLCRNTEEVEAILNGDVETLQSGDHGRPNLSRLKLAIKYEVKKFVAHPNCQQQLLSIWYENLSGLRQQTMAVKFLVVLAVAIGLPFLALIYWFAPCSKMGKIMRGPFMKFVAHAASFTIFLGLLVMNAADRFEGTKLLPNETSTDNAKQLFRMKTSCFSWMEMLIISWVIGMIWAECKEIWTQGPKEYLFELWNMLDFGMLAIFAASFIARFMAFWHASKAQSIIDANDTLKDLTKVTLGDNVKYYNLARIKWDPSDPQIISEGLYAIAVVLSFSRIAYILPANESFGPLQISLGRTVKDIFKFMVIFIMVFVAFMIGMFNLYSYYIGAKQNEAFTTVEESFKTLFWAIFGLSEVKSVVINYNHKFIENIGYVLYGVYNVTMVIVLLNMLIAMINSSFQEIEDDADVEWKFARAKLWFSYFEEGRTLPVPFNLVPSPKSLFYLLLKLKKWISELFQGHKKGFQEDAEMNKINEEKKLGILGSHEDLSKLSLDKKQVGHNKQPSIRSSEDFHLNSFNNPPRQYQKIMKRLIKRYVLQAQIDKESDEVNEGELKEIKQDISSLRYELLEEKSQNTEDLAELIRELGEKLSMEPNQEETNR
Description: Evaluation of TRPC6 channel inhibitory activity (1), FLIPR Calcium 5 Assay Kit, OAG stimulation (Compound Nos. 1-1293). The experiment is classed as cell-based. The conditions noted are these: Human TRPC6 stably-expressing cells, OAG 30 μM, FLIPR Calcium 5 Assay Kit; read-out: Inhibitory activity (pIC50 class) (converted). The gist of the method:
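Readout is pIC50 from four-parameter logistic fitting of inhibition of the OAG-evoked (30 μM final) fluorescence calcium signal. Human TRPC6 stable cells are dye-loaded with probenecid, and compound is applied 20 min ahead of agonist.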

`Cc1cc(Oc2cc(C#N)ccc2-c2ccc([C@H](O)CN)cn2)cc(-c2nc(C)cs2)n1` [compound 694, 4-[5-[(1S)-2-amino-1-hydroxyethyl]pyridin-2-yl]-3-[2-methyl-6-(4-methyl-1,3-thiazol-2-yl)pyridin-4-yl]oxybenzonitrile]: the IC50 is 10 to 1000 nM.

In the case of `N#Cc1ccc(-c2ccc(CN)cn2)c(Oc2cnnc(C3CC3)c2)c1` [compound 695, 4-[5-(aminomethyl)pyridin-2-yl]-3-(6-cyclopropylpyridazin-4-yl)oxybenzonitrile], the IC50 is < 10 nM.

In the case of `N#Cc1ccc(-c2ccc(CN)cn2)c(Oc2cnnc(N3CCCC3)c2)c1` [compound 696, 4-[5-(aminomethyl)pyridin-2-yl]-3-(6-pyrrolidin-1-ylpyridazin-4-yl)oxybenzonitrile], the IC50 was < 10 nM.

Turning to `N#Cc1ccc(-c2ccc(CN)cn2)c(Oc2cnnc(N3CCCCC3)c2)c1` [compound 697, 4-[5-(aminomethyl)pyridin-2-yl]-3-(6-piperidin-1-ylpyridazin-4-yl)oxybenzonitrile], the IC50 is < 10 nM.

`CN(C)c1cc(Oc2cc(C#N)ccc2-c2ccc(CN)cn2)cnn1` [compound 698, 4-[5-(aminomethyl)pyridin-2-yl]-3-[6-(dimethylamino)pyridazin-4-yl]oxybenzonitrile]: the IC50 is 10 to 1000 nM.

On to `N#Cc1ccc(-c2ncc(CN)cn2)c(Oc2nnc(-c3ccccn3)s2)c1` [compound 699, 4-[5-(aminomethyl)pyrimidin-2-yl]-3-[(5-pyridin-2-yl-1,3,4-thiadiazol-2-yl)oxy]benzonitrile], for which the IC50 was > 1000 nM.

For `N#Cc1ccc(-c2ncc(CN)cn2)c(Oc2nnc(Br)s2)c1` [compound 700, 4-[5-(aminomethyl)pyrimidin-2-yl]-3-[(5-bromo-1,3,4-thiadiazol-2-yl)oxy]benzonitrile], the IC50 was > 1000 nM.

As to `Cc1cc(Oc2cc(C#N)ccc2-c2ncc(C(C)N)cn2)cc(N2CCOCC2)n1` (stereo not shown) [compound 701], the IC50 is < 10 nM.

On to `CC(N)c1cnc(-c2ccc(C#N)cc2Oc2cc(-c3ccccn3)nn2C)nc1` (stereo not shown) [compound 702, 4-[5-(1-aminoethyl)pyrimidin-2-yl]-3-(2-methyl-5-pyridin-2-ylpyrazol-3-yl)oxybenzonitrile], for which the IC50 was < 10 nM.

`N#Cc1ccc(-c2ncc(CCN)cn2)c(Oc2nnc(-c3ccccn3)s2)c1` [compound 703, 4-[5-(2-aminoethyl)pyrimidin-2-yl]-3-[(5-pyridin-2-yl-1,3,4-thiadiazol-2-yl)oxy]benzonitrile]: the IC50 is 10 to 1000 nM.

Turning to `N#Cc1ccc(-c2ncc(CCN)cn2)c(Oc2nnc(N3CCCCC3)s2)c1` [compound 704, 4-[5-(2-aminoethyl)pyrimidin-2-yl]-3-[(5-piperidin-1-yl-1,3,4-thiadiazol-2-yl)oxy]benzonitrile], the IC50 is < 10 nM.

On to `N#Cc1ccc(-c2ncc(CN)cn2)c(Oc2nnc(-c3ccccc3)s2)c1` [compound 705, 4-[5-(aminomethyl)pyrimidin-2-yl]-3-[(5-phenyl-1,3,4-thiadiazol-2-yl)oxy]benzonitrile], for which the IC50 is 10 to 1000 nM.

Take `N#Cc1ccc(-c2ncc(CCN)cn2)c(Oc2nnc(-c3ccccc3)s2)c1` [compound 706, 4-[5-(2-aminoethyl)pyrimidin-2-yl]-3-[(5-phenyl-1,3,4-thiadiazol-2-yl)oxy]benzonitrile]: the IC50 was < 10 nM.

With `N#Cc1ccc(-c2ncc(CN)cn2)c(Oc2nnc(N3CCCCC3)s2)c1` [compound 707, 4-[5-(aminomethyl)pyrimidin-2-yl]-3-[(5-piperidin-1-yl-1,3,4-thiadiazol-2-yl)oxy]benzonitrile], the IC50 was 10 to 1000 nM.

In the case of `Cc1nc(Oc2cc(C#N)ccc2-c2ncc(CN)cn2)cc(N2CCO[C@@H](C)C2)n1` [compound 708, 4-[5-(aminomethyl)pyrimidin-2-yl]-3-[2-methyl-6-[(2S)-2-methylmorpholin-4-yl]pyrimidin-4-yl]oxybenzonitrile], the IC50 was < 10 nM.

Take `Cc1nc(Oc2cc(C#N)ccc2-c2ncc(CN)cn2)cc(N2C[C@@H](C)O[C@@H](C)C2)n1` [compound 709, 4-[5-(aminomethyl)pyrimidin-2-yl]-3-[6-[(2R,6S)-2,6-dimethylmorpholin-4-yl]-2-methylpyrimidin-4-yl]oxybenzonitrile]: the IC50 is 10 to 1000 nM.

On to `Cc1nc(Oc2cc(C#N)ccc2-c2ncc(CN)cn2)cc(N2CCOC(C)(C)C2)n1` [compound 710, 4-[5-(aminomethyl)pyrimidin-2-yl]-3-[6-(2,2-dimethylmorpholin-4-yl)-2-methylpyrimidin-4-yl]oxybenzonitrile], for which the IC50 was 10 to 1000 nM.

Consider `CC(C)c1cc(Oc2cc(C#N)ccc2-c2ccc(CN)n3ccnc23)n(C)n1` [compound 711, 4-[5-(aminomethyl)imidazo[1,2-a]pyridin-8-yl]-3-(2-methyl-5-propan-2-ylpyrazol-3-yl)oxybenzonitrile], for which the IC50 is < 10 nM.

On to `N#Cc1ccc(-c2ncc(CN)cn2)c(Oc2cnnc(C3CC3)c2)c1` [compound 713, 4-[5-(aminomethyl)pyrimidin-2-yl]-3-(6-cyclopropylpyridazin-4-yl)oxybenzonitrile], for which the IC50 is 10 to 1000 nM.

Turning to `N#Cc1ccc(-c2ncc(CN)cn2)c(Oc2cnnc(N3CCCC3)c2)c1` [compound 714, 4-[5-(aminomethyl)pyrimidin-2-yl]-3-(6-pyrrolidin-1-ylpyridazin-4-yl)oxybenzonitrile], the IC50 was < 10 nM.

With `N#Cc1ccc(-c2ncc(CN)cn2)c(Oc2cnnc(N3CCCCC3)c2)c1` [compound 715, 4-[5-(aminomethyl)pyrimidin-2-yl]-3-(6-piperidin-1-ylpyridazin-4-yl)oxybenzonitrile], the IC50 was < 10 nM.

In the case of `CN(C)c1cc(Oc2cc(C#N)ccc2-c2ncc(CN)cn2)cnn1` [compound 716, 4-[5-(aminomethyl)pyrimidin-2-yl]-3-[6-(dimethylamino)pyridazin-4-yl]oxybenzonitrile], the IC50 is 10 to 1000 nM.

Regarding `N#Cc1ccc(-c2ccc(CCN)cn2)c(Oc2nnc(N3CCOCC3)s2)c1` [compound 717, 4-[5-(2-aminoethyl)pyridin-2-yl]-3-[(5-morpholin-4-yl-1,3,4-thiadiazol-2-yl)oxy]benzonitrile], the IC50 was 10 to 1000 nM.

As to `N#Cc1ccc(-c2ccc(CCN)cn2)c(Oc2nnc(C3CC3)s2)c1` [compound 718, 4-[5-(2-aminoethyl)pyridin-2-yl]-3-[(5-cyclopropyl-1,3,4-thiadiazol-2-yl)oxy]benzonitrile], the IC50 was < 10 nM.

For the compound `N#Cc1ccc(-c2ccc(CCN)cn2)c(Oc2nnc(N3CCCC3)s2)c1` [compound 719, 4-[5-(2-aminoethyl)pyridin-2-yl]-3-[(5-pyrrolidin-1-yl-1,3,4-thiadiazol-2-yl)oxy]benzonitrile], the IC50 is 10 to 1000 nM.

On to `N#Cc1ccc(-c2ncc(CN)cn2)c(Oc2nnc(N3CCC3)s2)c1` [compound 720, 4-[5-(aminomethyl)pyrimidin-2-yl]-3-[[5-(azetidin-1-yl)-1,3,4-thiadiazol-2-yl]oxy]benzonitrile], for which the IC50 was > 1000 nM.

As for `N#Cc1ccc(-c2ncc(CN)cn2)c(Oc2nnc(N3CC(F)C3)s2)c1` [compound 721, 4-[5-(aminomethyl)pyrimidin-2-yl]-3-[[5-(3-fluoroazetidin-1-yl)-1,3,4-thiadiazol-2-yl]oxy]benzonitrile], the IC50 is > 1000 nM.

Consider `N#Cc1ccc(-c2ncc(CCN)cn2)c(Oc2nnc(N3CC(F)C3)s2)c1` [compound 722, 4-[5-(2-aminoethyl)pyrimidin-2-yl]-3-[[5-(3-fluoroazetidin-1-yl)-1,3,4-thiadiazol-2-yl]oxy]benzonitrile], for which the IC50 is 10 to 1000 nM.

`N#Cc1ccc(-c2ncc(CCN)cn2)c(Oc2nnc(N3CCOCC3)s2)c1` [compound 723, 4-[5-(2-aminoethyl)pyrimidin-2-yl]-3-[(5-morpholin-4-yl-1,3,4-thiadiazol-2-yl)oxy]benzonitrile]: the IC50 is 10 to 1000 nM.

As for `CCN(CC)c1nnc(Oc2cc(C#N)ccc2-c2ncc(CCN)cn2)s1` [compound 724, 4-[5-(2-aminoethyl)pyrimidin-2-yl]-3-[[5-(diethylamino)-1,3,4-thiadiazol-2-yl]oxy]benzonitrile], the IC50 is < 10 nM.

Turning to `N#Cc1ccc(-c2ncc(CN)cn2)c(Oc2nnc(N3CCCC3)s2)c1` [compound 725, 4-[5-(aminomethyl)pyrimidin-2-yl]-3-[(5-pyrrolidin-1-yl-1,3,4-thiadiazol-2-yl)oxy]benzonitrile], the IC50 was > 1000 nM.
